We go through 30 compounds from BindingDB's records for doi:10.1021/acs.jmedchem.6b01885 (Indiana University School of Medicine, 2017).

For orientation: EC50 means the concentration that produces a half-maximal response. High values mean a need for much substance, low ones an effect from little substance.

This experiment deals with Survival motor neuron protein (Homo sapiens, UniProt Q16637). As to the kind of experiment: Stabilization of human SMN protein expressed in HEK293 cells expressing SMN2 promoter after 24 hrs by luciferase reporter gene assay. On the technique in general: A reporter such as luciferase makes a cellular process visible.
Chain of Survival motor neuron protein (Q16637 whole entry): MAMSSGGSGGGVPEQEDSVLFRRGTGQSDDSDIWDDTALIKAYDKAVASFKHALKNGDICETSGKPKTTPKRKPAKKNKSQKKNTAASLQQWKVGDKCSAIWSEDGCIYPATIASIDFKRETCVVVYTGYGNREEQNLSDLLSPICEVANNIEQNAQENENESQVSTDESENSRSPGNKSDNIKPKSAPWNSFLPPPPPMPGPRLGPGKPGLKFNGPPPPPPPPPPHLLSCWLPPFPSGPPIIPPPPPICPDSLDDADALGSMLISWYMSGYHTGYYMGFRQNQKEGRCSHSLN
On to `CC(C)c1cc(C(=O)N2CCc3ccccc32)no1`, for which the EC50 stood at 720 nM.
Regarding `CC(C)c1cc(CNc2ccc(F)c(Cl)c2)no1`, the 50% effective concentration (EC50) is 11200 nM.
In turn, `O=C(Nc1ccc(F)c(Cl)c1)c1cc(Cc2ccccc2)on1` displayed a concentration giving a half-maximal response (EC50) of 3560 nM.
The figure for `CC(C)(C)c1cc(C(=O)Nc2ccc(F)c(Cl)c2)no1` is 1930 nM; for `CCc1cc(C(=O)Nc2ccc(F)c(Cl)c2)no1` it is 8800 nM.
The result for `CC(C)c1cc(C(=O)Nc2nc3ccccc3s2)no1` reads 170 nM; that for `CC(C)c1cc(C(=O)Nc2nc3ccccc3n2C)no1`, 2600 nM.
The compound `CC(C)c1cc(C(=O)Nc2nccs2)no1` registered an EC50 of 780 nM.
On to `CC(C)c1cc(C(=O)Nc2ccccn2)no1`, for which the midpoint of the response, the EC50, lay at 360 nM.
In the case of `Cc1cccc(NC(=O)c2cc(C(C)C)on2)c1`, the EC50 was determined as 1800 nM.
In the case of `Cc1ccccc1NC(=O)c1cc(C(C)C)on1`, the response was half-maximal at 5400 nM (EC50).
For `COc1ccccc1NC(=O)c1cc(C(C)C)on1`, a half-maximal response (EC50) required 7300 nM.
Consider `CC(C)c1cc(C(=O)Nc2ccc(Cl)cc2)no1`, for which the response was half-maximal at 2800 nM (EC50).
With `CC(C)c1cc(C(=O)Nc2ccccc2Cl)no1`, the EC50 worked out at 6200 nM.
The result for `CC(C)c1cc(C(=O)Nc2ccccc2F)no1` reads 260 nM.
The compound `CC(C)c1cc(C(=O)Nc2ccccc2)no1` had a concentration for a half-maximal effect (EC50) of 280 nM.
The figure for `Cc1c(C(=O)Nc2ccc(F)c(Cl)c2)noc1C(C)C` is 500 nM; for `CC(C)c1nc(NC(=O)c2ccc(F)c(Cl)c2)cs1` it is 1600 nM; for `CC(C)c1cc(NC(=O)c2ccc(F)c(Cl)c2)on1` it is 5500 nM.
The result for `CC(C)c1cc(NC(=O)c2ccc(F)c(Cl)c2)no1` reads 9900 nM; that for `O=C(Nc1ncc(C2CCC2)s1)c1ccc(F)c(Cl)c1`, 500 nM; that for `CC(C)c1cc(C(=S)Nc2ccc(F)c(Cl)c2)no1`, 13900 nM.
The result for `CC(C)Cc1cc(C(=O)Nc2ccc(F)c(Cl)c2)no1` reads 1500 nM.
As to `CC(C)c1cc(C(=O)Nc2nc3ccccc3[nH]2)no1`, the midpoint of the response, the EC50, lay at 260 nM.
Regarding `Cc1ccc(NC(=O)c2cc(C(C)C)on2)cc1`, the EC50 was 1400 nM.
In turn, `COc1cccc(NC(=O)c2cc(C(C)C)on2)c1` registered an EC50 of 3600 nM.
Take `CC(C)c1cc(C(=O)Nc2cccc(F)c2)no1`: it took 340 nM to reach a half-maximal effect (EC50).
`CC(C)c1cc(C(=O)Nc2ccc(F)cc2)no1` displayed an EC50 of 1800 nM. This EC50 lies about 5.3-fold higher than the previous one.
As for `CC(C)c1cc(C(=O)Nc2cccc(Cl)c2)no1` [MLS000087323], the response was half-maximal at 860 nM (EC50).
For the compound `CC(C)c1cc(C(=O)Nc2cccnc2)no1` [MLS000087329], the response was half-maximal at 9900 nM (EC50).
